# Key:
# Assay in all cases: Antibiogram by diffusion technique (CA-SFM 2008)
# Type in all cases: cell-based
# [1] = tested on: E. coli ATCC 25922; parameters: Diameter (D): unit not given here
# Text: Three clinical categories were selected for interpretation of the in vitro sensitivity tests: sensitive (S), resistant (R) and intermediate (I). • The strains categorized S are those for which the probability of therapeutic success is high in the case of treatment by systemic route with the dosing schedule recommended in the summary of product characteristics (SPC) prepared by the French Health Products Safety Agency ([…]). • The strains categorized R are those for which there is a high probability of therapeutic failure regardless of treatment type and antibiotic dose. • The strains categorized I are those for which therapeutic success cannot be predicted. These strains form a heterogeneous group for which the results obtained in vitro are not predictive of therapeutic success. […] The intermediate category is also a buffer zone which takes into account technical and biological uncertainties. The sensitivity of strains to antibiotics was determined by a diffusion technique according to the 2008 recommendations by the Antibiogram Committee of the French Microbiology Society (CA-SFM). In terms of critical concentrations and diameters, strains are categorized as follows: • sensitive (S): strains for which the MIC of the antibiotic tested is less than or equal to the lower critical concentration c, which is equivalent to a diameter greater than or equal to the critical diameter D; • resistant (R): strains for which the MIC of the antibiotic tested are greater than the upper critical concentration C, corresponding to a diameter less than the critical diameter d; • intermediate sensitivity (I): strains for which the MIC of the antibiotic tested and the corresponding diameter are between the two critical concentrations and the two critical diameters. The tests were carried out on Mueller-Hinton agar. An inoculum adjusted to 0.5 on the McFarland scale is then diluted to 1/100. Petri dishes are inoculated by swabbing. The dishes are read after 24 hours of incubation at 37° C. The raw results are then interpreted according to the interpretative reading rules of the CA-SFM. Two examples: all strains of methicillin-resistant Staphylococcus are resistant to all beta-lactams, and the same is true for gentamicin-resistant strains; golden staph is necessarily resistant to kanamycin (and amikacin) and tobramycin. The quality of the diffusion method is controlled using E. coli strain ATCC 25922.
# [2] = tested on: Enterococcus strain 8153; parameters: Diameter: unit not given here
# Text: (§1) Three clinical categories were selected for interpretation of the in vitro sensitivity tests: sensitive (S), resistant (R) and intermediate (I). • The strains categorized S are those for which the probability of therapeutic success is high in the case of treatment by systemic route with the dosing schedule recommended in the summary of product characteristics (SPC) prepared by the French Health Products Safety Agency (AFSSAPS). • The strains categorized R are those for which there is a high probability of therapeutic failure regardless of treatment type and antibiotic dose. • The strains categorized I are those for which therapeutic success cannot be predicted. These strains form a heterogeneous group for which the results obtained in vitro are not predictive of therapeutic success. […] The intermediate category is also a buffer zone which takes into account technical and biological uncertainties.
# (§2) The sensitivity of strains to antibiotics was determined by a diffusion technique according to the 2008 recommendations by the Antibiogram Committee of the French Microbiology Society (CA-SFM).
# (§3) In terms of critical concentrations and diameters, strains are categorized as follows: • sensitive (S): strains for which the MIC of the antibiotic tested is less than or equal to the lower critical concentration c, which is equivalent to a diameter greater than or equal to the critical diameter D; • resistant (R): strains for which the MIC of the antibiotic tested are greater than the upper critical concentration C, corresponding to a diameter less than the critical diameter d; • intermediate sensitivity (I): strains for which the MIC of the antibiotic tested and the corresponding diameter are between the two critical concentrations and the two critical diameters.
# (§4) The tests were carried out on Mueller-Hinton agar. An inoculum adjusted to 0.5 on the McFarland scale is then diluted to 1/100. Petri dishes are inoculated by swabbing. The dishes are read after 24 hours of incubation at 37° C.
# (§5) The raw results are then interpreted according to the interpretative reading rules of the CA-SFM.
# [3] = tested on: Enterococcus strain 8152; parameters: Diameter: unit not given here
# Text: as §1, §2, §3, §4, §5
# [4] = tested on: Enterobacter aerogenes (9004); settings: strain 9004
# Text: as §1, §2, §3, §4, §5
# [5] = tested on: strain 9010, Acinetobacter baumannii, with VEB-1 ESBL
# Text: as §1, §2, §3, §4, §5
# [6] = tested on: E. coli strain 9003
# Text: as §1, §2, §3, §4, §5
# [7] = tested on: strain 9007, Pseudomonas aeruginosa, with VIM-2 carbapenemase
# Text: as §1, §2, §3, §4, §5
# [8] = tested on: E. coli strain 8154; parameters: D: unit not given here
# Text: as §1, §2, §3, §4, §5
# [9] = tested on: Pseudomonas aeruginosa strain 8132; parameters: D: unit not given here
# Text: as §1, §2, §3, §4, §5
# [10] = tested on: E. coli strain 8156; parameters: D: unit not given here
# Text: as §1, §2, §3, §4, §5
# [11] = tested on: E. coli strain 8155; parameters: D: unit not given here
# Text: as §1, §2, §3, §4, §5
# [12] = tested on: Pseudomonas aeruginosa strain 8134; parameters: D: unit not given here
# Text: as §1, §2, §3, §4, §5
# [13] = tested on: golden staph (S. aureus) strain 8239; parameters: D: unit not given here
# Text: as §1, §2, §3, §4, §5
# [14] = tested on: Pseudomonas aeruginosa strain 8129; parameters: D: unit not given here
# Text: as §1, §2, §3, §4, §5
# [15] = tested on: golden staph (S. aureus) strain 8240; parameters: D: unit not given here
# Text: as §1, §2, §3, §4, §5
# [16] = tested on: golden staph (S. aureus) strain 8147; parameters: D: unit not given here
# Text: as §1, §2, §3, §4, §5
# [17] = tested on: Pseudomonas aeruginosa strain 8128; parameters: D: unit not given here
# Text: as §1, §2, §3, §4, §5
# [18] = tested on: E. coli strain 8157; parameters: D: unit not given here
# Text: as §1, §2, §3, §4, §5
# [19] = tested on: Enterococcus faecium (9001); settings: strain 9001
# Text: as §1, §2, §3, §4, §5
Compound,Category (Cat.) [1],Diameter (D) [1],Category [2],Diameter [2],Category [3],Diameter [3],Category [5],Category [7],Cat. [8],D [8],Cat. [9],D [9],Cat. [10],Cat. [13],D [13],Cat. [15],D [15],Cat. [16],D [16],Category [19],further results
CC1(C)S[C@@H]2[C@H](NC(=O)[C@H](N)c3ccc(O)cc3)C(=O)N2[C@H]1C(=O)O [Amoxicillin],S,23,S,33,S,32,R,R,R,0,R,0,S,R,12,R,17,R,26,–,Category [4]: R; Category [6]: R; D [10]: 25; Cat. [11]: S; D [11]: 24; Cat. [12]: R; D [12]: 0; Cat. [14]: R; D [14]: 0; Cat. [17]: R; D [17]: 0; Cat. [18]: R; D [18]: 0
CC1(C)S[C@@H]2[C@H](NC(=O)[C@H](N)c3ccccc3)C(=O)N2[C@H]1C(=O)O [Ampi],–,–,–,–,–,–,–,–,–,–,–,–,–,–,–,–,–,–,–,R,–
O=C(N[C@H](CO)[C@H](O)c1ccc([N+](=O)[O-])cc1)C(Cl)Cl [Chloram],–,–,–,–,–,–,–,–,–,–,–,–,–,–,–,–,–,–,–,S,–
CCC[C@@H]1C[C@@H](C(=O)N[C@@H]([C@H]2O[C@H](SC)[C@H](O)[C@@H](O)[C@H]2O)[C@H](C)Cl)N(C)C1 [Clindamycin],–,–,R,0,R,0,–,–,–,–,–,–,–,S,31,S,30,S,29,R,–
CC[C@H]1OC(=O)[C@H](C)[C@@H](O[C@H]2C[C@@](C)(OC)[C@@H](O)[C@H](C)O2)[C@H](C)[C@@H](O[C@@H]2O[C@H](C)C[C@H](N(C)C)[C@H]2O)[C@](C)(O)C[C@@H](C)C(=O)[C@H](C)[C@@H](O)[C@]1(C)O [Erythro],–,–,–,–,–,–,–,–,–,–,–,–,–,–,–,–,–,–,–,R,–
NC[C@H]1O[C@H](O[C@H]2[C@H](O)[C@@H](O[C@H]3O[C@H](CO)[C@@H](O)[C@H](N)[C@H]3O)[C@H](N)C[C@@H]2N)[C@H](O)[C@@H](O)[C@@H]1O [Kanamycin],S,22,R,14,R,10,R,R,S,24,R,0,S,S,26,R,12,S,22,R,D [10]: 27; Cat. [11]: S; D [11]: 23; Cat. [12]: R; D [12]: 14; Cat. [14]: R; D [14]: 10; Cat. [17]: R; D [17]: 9; Cat. [18]: S; D [18]: 24
CC(=O)NC[C@H]1CN(c2ccc(N3CCOCC3)c(F)c2)C(=O)O1 [Linezolid],–,–,–,–,–,–,–,–,–,–,–,–,–,–,–,–,–,–,–,S,–
COc1c(N2C[C@@H]3CCCN[C@@H]3C2)c(F)cc2c(=O)c(C(=O)O)cn(C3CC3)c12 [Moxiflo],–,–,–,–,–,–,–,–,–,–,–,–,–,–,–,–,–,–,–,R,–
CN[C@@H]1[C@H](O[C@H]2[C@H](O[C@H]3[C@H](O)[C@@H](O)[C@H](N=C(N)N)[C@@H](O)[C@@H]3N=C(N)N)O[C@@H](C)[C@]2(O)C=O)O[C@@H](CO)[C@H](O)[C@H]1O [Strepto HC],–,–,–,–,–,–,–,–,–,–,–,–,–,–,–,–,–,–,–,R,–
CN(C)[C@@H]1C(O)=C(C(N)=O)C(=O)[C@@]2(O)C(O)=C3C(=O)c4c(O)cccc4[C@@](C)(O)[C@H]3C[C@@H]12 [Tetra],–,–,–,–,–,–,–,–,–,–,–,–,–,–,–,–,–,–,–,S,–
NC[C@H]1O[C@H](O[C@H]2[C@H](O)[C@@H](O[C@H]3O[C@H](CO)[C@@H](O)[C@H](N)[C@H]3O)[C@H](N)C[C@@H]2N)[C@H](N)C[C@@H]1O [Tobramycin],S,24,R,14,R,11,R,S,S,24,R,0,S,S,31,R,0,S,30,–,Category [4]: R; Category [6]: S; D [10]: 22; Cat. [11]: S; D [11]: 24; Cat. [12]: R; D [12]: 11; Cat. [14]: S; D [14]: 27; Cat. [17]: S; D [17]: 30; Cat. [18]: S; D [18]: 24
CN[C@H](CC(C)C)C(=O)N[C@H]1C(=O)N[C@@H](CC(N)=O)C(=O)N[C@H]2C(=O)N[C@H]3C(=O)N[C@H](C(=O)N[C@H](C(=O)O)c4cc(O)cc(O)c4-c4cc3ccc4O)[C@H](O)c3ccc(c(Cl)c3)Oc3cc2cc(c3O[C@@H]2O[C@H](CO)[C@@H](O)[C@H](O)[C@H]2O[C@H]2C[C@](C)(N)[C@H](O)[C@H](C)O2)Oc2ccc(cc2Cl)[C@H]1O [Vanco],–,–,–,–,–,–,–,–,–,–,–,–,–,–,–,–,–,–,–,R,–
Amoxicillin + clavulanic acid,S,22,S,32,S,30,R,R,S,14,R,0,S,R,27,R,25,R,25,–,Category [4]: R; Category [6]: S; D [10]: 22; Cat. [11]: S; D [11]: 24; Cat. [12]: R; D [12]: 0; Cat. [14]: R; D [14]: 0; Cat. [17]: R; D [17]: 0; Cat. [18]: S; D [18]: 30

# — US9034918B2, “Composition including at least one trans-cinnamaldehyde and the use thereof in the treatment of bacterial infections, specifically in the treatment of nosocomial infections” (SEPTEOS, priority 2009, dated 2015)
